Experimental findings from patent publication US5726167A, “Inhibition of phosphatidylinositol 3-kinase with viridin, demethoxyviridin, viridiol, demethoxyviridiol, virone, wortmannolone, and analogs thereof” (Eli Lilly and Company, priority 1997, dated 1998) are described below.

For this assay, the target named is bovine brain purified PI 3-kinase. Kind of assay: Assay of purified PI 3-kinase activity. It counts as biochemical. As to conditions: purified bovine brain PI 3-kinase, phosphatidylinositol substrate, 20 μM ATP. How it is done:
In another, preferred, method, PI 3-kinase was prepared from bovine brain. Two bovine brains (wet weight about 900 g) were obtained from a local slaughterhouse within minutes of slaughter, packed on ice, and homogenized within one hour. Brains were trimmed of excess fat and blood vessels and then homogenized using a Tekmar Tissuemizer (Cincinnati, Ohio) at 4° C. in 20 mM of Tris(pH 8.3) containing 250 mM of sucrose, 6 mM of β-mercaptoethanol, 1 μg/ml of leupeptin, 1 μg/ml of pepstatin A, 0.4 mM of PMSF, and 1 mM of MgCl2.
Following centrifugation for 60 minutes at 10,000×g, the pH of the supernatant (about 1200 mL) was lowered to 5.75 using dropwise addition of 1M acetic acid at 4° C. After stirring for an additional 15 minutes at 4° C., the solution was centrifuged for 60 minutes at 13,500×g. The supernatant was discarded. Pellets were resuspended in Buffer A (20 mM of Tris, pH 8.3, containing 6 mM of β-mercaptoethanol, 0.1 mM of ethylene glycol-bis(β-aminoethyl ether) N,N,N',N'-tetraacetic acid (EGTA), 1 μg/mL of leupeptin, 1 μg/mL of pepstatin A, and 1 mM of MgCl2), and loaded onto a Fast Flow Q Sepharose column (300 ml) at a flow rate of 5 mL/minute at 4° C. […]
PI 3-kinase activity was measured as previously described by Matter, W. F., et al., Biochemical and Biophysical Research Communications, 186: 624-631 (1992). […]

As to `COC1C(=O)c2coc3c2[C@@](C)(c2ccc4c(c2C3=O)CCC4=O)[C@@H]1O` (some centres unmarked) [viridin], the “one-half maximal inhibition, IC50” value was 0.85 ng/mL. Under “molar value in brackets, read-out: one-half maximal inhibition, IC50”, the IC50 is 2.4 nM.

Usually IC50 stands for the concentration that inhibits the measured activity by half.
